Results taken from article PMC8091729 (Bioorganic & Medicinal Chemistry Letters, 2021).

Experiments:
COVID-19 = settings: patients with COVID-19; cited from earlier work
SARS-CoV-2 = experiment: Image-based antiviral assay; type: cell-based; settings: CC50/EC50

SMILES	benefit in clinical trials (COVID-19)	selectivity index (SARS-CoV-2)
CCC(CC)COC(=O)[C@H](C)N[P@](=O)(OC[C@H]1O[C@@](C#N)(c2ccc3c(N)ncnn23)[C@H](O)[C@@H]1O)Oc1ccccc1 [Remdesivir]	68%	–
O=C(Cn1c2ccccc2n2c(=O)cc(-c3ccc(Cl)cc3)nc12)Nc1ccc(F)cc1F [Compound 7]	–	more than 10
